Reference: paper PMC8467532, “DYRK1A Kinase Inhibitors Promote β-Cell Survival and Insulin Homeostasis” (Cells, 2021)

Key:
DYRK1A kinase domain = biological target: T1, DYRK1A kinase domain (Homo sapiens, UniProt Q13627); assay: MST direct binding assay
T1 construct: kinase domain of DYRK1A (126–490) was cloned into pET24a with C-terminal His-tag; made in house; host or cells: E. coli BL21 (DE3) RIL

DYRK1A = biological target: T2, DYRK1A (Homo sapiens, UniProt Q13627); assay: Cook activity assay (ATP regenerative NADH consuming DYRK1A activity assay); type: biochemical
T2 construct: kinase domain of DYRK1A (126–490) was cloned into pET24a with C-terminal His-tag; His-tag (C); made in house; host or cells: E. coli BL21 (DE3) RIL

DYRK1A in MIN6 cell line = assay: DYRK1A expression by flow cytometry and confocal imaging; type: cell-based, mouse
Procedure: (§1) The presence of insulin, glucagon, C-peptide, Ki67, and DYRK1A was assessed in MIN6 and INS-1E pancreatic cell lines. Before imaging, cells were seeded onto slides at a density of 1 × 10^5 cells and maintained at 37 °C in 95% atmospheric air and 5% CO2 in a humidified atmosphere for 24 h. After washing with fresh medium, cells were incubated with 5 µM inhibitor solution for 24 h. After this time, the solution was replaced with a culture medium for another 48 h. The cells were fixed. Then after washing and permeabilization, they were incubated with specific antibodies diluted in PBS. Next, the cells were incubated for 10 min with Hoechst33342 (Sigma-Aldrich). After incubation, at 37 °C, in the dark, the cells were washed twice with HBSS (Gibco), the slide was transferred to a microscope table, and the cells were visualized under a Zeiss LSM 880 confocal microscope (Carl Zeiss, Jena, Germany) with a 63× immersion objective. Images were analyzed by Zeiss ZEN Software.
(§2) The presence of insulin, glucagon, C-peptide, Ki67 and DYRK1A was assessed in MIN6 and INS-1E pancreatic cell lines. Before analysis, cells were seeded onto slides at a density of 1 × 10^5 cells and maintained at 37 °C in 95% atmospheric air and 5% CO2 in a humidified atmosphere for 24 h. After washing with fresh medium, cells were incubated with 5 µM inhibitor solution for 24 h. After this time, the solution was replaced with a culture medium for another 48 h. The cells were then detached from the plate using trypsin. The cells were fixed. Then after washing and permeabilization, they were incubated with specific antibodies diluted in PBS. Cells were analyzed with BDAccuri flow cytometer and calculated using FlowJo software (Ashland, Oregon-based FlowJo LLC, a subsidiary of Becton Dickinson).

INS-1E and MIN6 cells [1] = assay: Ki67 proliferation analysis; type: cell-based, rat, mouse
INS-1E and MIN6 cells [2] = assay: GSIS and insulin, C-peptide, glucagon staining (flow cytometry, confocal); type: cell-based, rat, mouse; parameters: key to insulin+ / glucagon+ / C-peptide+: ↑: moderate; ↑↑: most potent
Procedure: Cells were cultured in a low glucose medium (5.5 mM) for 24 h. After this medium was changed to lower glucose medium (2 mM) for 2 h and then for high glucose medium (25 mM) for 30 min, media were harvested and/or cells were used for further analysis.
as §1, §2

isolated mouse islets = assay: Insulin secretion assay in isolated mouse islets (ELISA, immunostaining); type: cell-based; parameters: key to insulin secretion (ELISA): ↑: moderate; ↑↑: most potent
Procedure: The Insulin ELISA (Ultra Sensitive) was used to quantify insulin levels in control and treated organoids and isolated islets from the mouse pancreas (Crystal Chem, Downers Grove, IL, USA). Islets were homogenized in lysis buffer. Obtained buffer lysates and medium samples (after GSIS) were analyzed for total protein level and subsequently processed following the manufacturer’s protocol.
Mice (male, initially 12 weeks old) were sacrificed by cervical vertebral dislocation. Before starting the incision, their bodies were sprayed with 70% EtOH. A hemostatic clamp was placed on both sides of the small intestine, leaving a small pocket to absorb the collagenase solution into the intestine. Next, 3 mL of cold collagenase solution was introduced into the pancreas through the bile duct. The pancreas was removed from the body and placed in a falcon tube containing 2 mL of collagenase solution. The tube was placed in a water bath at 37 °C. It was incubated for 13 min. At the end of this time, the falcon was shaken vigorously. The collagenase was inactivated with FBS. The sample was centrifuged for 30 s (300× g). This step was repeated 3 times. HBSS was then added to the sample and centrifuged two more times at the same speed as before. After the last centrifugation, HBSS was removed and Percoll (1.045 g/mL) (Sigma-Aldrich) was added. The Percoll solution was left to sediment for 5 min. After this time, the islets were collected from the bottom of the falcon. The step was repeated 3 times. Finally, islets were cultured in RPMI-1640 (Pan Biotech) supplemented with 2 mM L-glutamine (Gibco), 10% fetal bovine serum (FBS) and 1% penicillin/streptomycin and the culture medium was changed daily.
The presence of insulin, C-peptide, glucagon, Pdx-1 and Nkx6.1 was assessed in isolated mouse islets. Islets were fixed in PFA (3.8%) for 30 min, washed with PBS and 0.15% Triton X-100 was added for 1.5 h, then washed again with PBS and samples were transferred to 1% BSA + 0.05% Triton X-100 solution for 3 h. After this time, islets were incubated with primary antibody for 12 h at 4 °C. The secondary antibody was then added for 3 h. Next, the islets were incubated for 10 min with Hoechst33342. After incubation, at 37 °C, in the dark, the samples were washed twice with HBSS, the slide was transferred to a microscope table and the cells were visualized under a Zeiss LSM 880 confocal microscope (Carl Zeiss, Jena, Germany) with a 63× immersion objective. Images were analyzed by Zeiss ZEN Software.

INS-1E and MIN6 cells [3] = assay: MTT cytotoxicity and cell survival assay, β-cell lines
[4] = Table 2, Biochemistry, unit inferred
[5] = combination with TGF-β inhibitors
[6] = high glucose, day 4 after treatment

O=c1ccc2cnc3ccc(-c4cn[nH]c4)cc3c2n1-c1ccc(F)cc1C(F)(F)F [AC27, 1-(4-fluoro-2-(trifluoromethyl)phenyl)-9-(1H-pyrazol-4-yl)benzo[h][1, 6]naphthyridin-2-one]
Kd (DYRK1A kinase domain; MST direct binding, 20 nM fluorescent-labelled DYRK1A kinase domain): 1800 ± 500 nM | Kd (DYRK1A kinase domain; [4]): 1830 ± 543 nM | Ki (DYRK1A; Cook assay, DYRK1A 0.5 µM, ATP 128 µM, DYRKtide 1 mM): 200 ± 300 nM | Ki (DYRK1A; Cook assay, phosphorylation of substrate peptide): < 200 nM | Ki (DYRK1A; [4]): 170 ± 260 nM | DYRK1A (fluorescence-positive cells, flow cytometry) (DYRK1A in MIN6 cell line; MIN6, 24 h with inhibitor, control 74%): 33% | DYRK1A signal in confocal imaging (DYRK1A in MIN6 cell line; MIN6, vs untreated control): reduced | induction of β-cell proliferation (Ki67 labeling of insulin-labeled cells) (INS-1E and MIN6 cells [1]; 5 μM, vs untreated cells): most potent in inducing β-cell proliferation | Ki67 labeling index in β-cells (INS-1E and MIN6 cells [1]; combined with RepSox or LY364947): significant increase in the Ki67 labeling index | Ki67 labeling index, difference to that without TGF-β inhibition (INS-1E and MIN6 cells [1]; combined with TGF-β inhibitors): about 5% | Ki67 labeling index (proliferation rate) (INS-1E and MIN6 cells [1]; combined with TGF-β inhibitors (RepSox, LY364947), 5 μM each): > 12% | glucagon level (INS-1E and MIN6 cells [2]; 5 μM, compound alone): balanced (lower) glucagon level | insulin/C-peptide secretion (INS-1E and MIN6 cells [2]; GSIS, compound alone): higher insulin/C-peptide secretion | C-peptide+ (INS-1E and MIN6 cells [2]; Table 2, Cell lines): ↑↑ | glucagon+ (INS-1E and MIN6 cells [2]; Table 2, Cell lines): ↑ | insulin+ (INS-1E and MIN6 cells [2]; Table 2, Cell lines): ↑↑ | time the effect remained stable (INS-1E and MIN6 cells [2]; after inhibitor action): up to 12 days | glucagon level after GSIS (INS-1E and MIN6 cells [2]; [5]): reduced | insulin/C-peptide secretion (INS-1E and MIN6 cells [2]; [5]): markedly improved | increase in insulin expression (INS-1E and MIN6 cells [2]; discussion statement): more than 60% | insulin secretion (ELISA) (isolated mouse islets; Table 2, Isolated islets): ↑↑ | insulin secretion compared with untreated islets (isolated mouse islets; after GSIS): significantly higher | increase in insulin secretion compared with control islets (isolated mouse islets; [6]): 60% | insulin secretion, higher than with harmine (isolated mouse islets; [6]): ca. 15% | percentage of total insulin released (isolated mouse islets; secretion normalized for total insulin content): higher | concentration without significant toxic effects (INS-1E and MIN6 cells [3]; MTT, 24 h): up to 5 μM | toxicity (INS-1E and MIN6 cells [3]; Table 2, Cell lines): no
